Laboratory results taken from patent publication US20050014811A1, “Substituted benzimidazole compounds and their use for the treatment of cancer” (Aventis Pharma S.A., priority 2001, published 2005).

Tests used:
CDK4/CyclinD1 = CDK4/CyclinD1 (Homo sapiens, UniProt P11802); assay: CDK4/CyclinD1 Flashplate assay, 96-well format, biotinylated-Rb peptide substrate; assay type: biochemical
How it was run: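 Biotinylated Rb peptide bound to streptavidin Flashplate; CDK4/CyclinD1 (70 ng/well) preincubated 30 min on ice with compound at 10, 3, 1, 0.3 and 0.1 μM final. Reaction with 1 μM cold ATP plus 33P-ATP for 45 min at RT; incorporated 33P counted, duplicates.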

CDK2/CyclinE = CDK2/CyclinE (Homo sapiens, UniProt P24941); assay: CDK2/CyclinE Flashplate assay, 96-well format, biotinylated-Rb peptide substrate; assay type: biochemical
How it was run: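 Biotinylated Rb peptide was captured on streptavidin Flashplates, and CDK2/CyclinE (200 ng/well) was preincubated 30 min on ice with inhibitor at 10, 3, 1, 0.3 or 0.1 μM final. Reactions ran 45 min at RT with 1 μM ATP plus 1 μCi ^33P-ATP. After washing, incorporated ^33P was counted, in duplicate.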

Chain of CDK4/CyclinD1 (P11802 whole entry, species assumed): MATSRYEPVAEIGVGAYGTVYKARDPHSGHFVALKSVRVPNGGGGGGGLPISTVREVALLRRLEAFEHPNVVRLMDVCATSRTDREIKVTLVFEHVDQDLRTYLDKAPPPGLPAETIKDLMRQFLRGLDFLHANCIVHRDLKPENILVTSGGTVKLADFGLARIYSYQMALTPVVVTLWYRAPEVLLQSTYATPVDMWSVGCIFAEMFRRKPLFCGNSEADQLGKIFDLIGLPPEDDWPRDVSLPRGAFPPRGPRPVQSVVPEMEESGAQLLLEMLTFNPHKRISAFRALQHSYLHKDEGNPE
Chain of CDK4/CyclinD1 (P24385 whole entry partner, species assumed): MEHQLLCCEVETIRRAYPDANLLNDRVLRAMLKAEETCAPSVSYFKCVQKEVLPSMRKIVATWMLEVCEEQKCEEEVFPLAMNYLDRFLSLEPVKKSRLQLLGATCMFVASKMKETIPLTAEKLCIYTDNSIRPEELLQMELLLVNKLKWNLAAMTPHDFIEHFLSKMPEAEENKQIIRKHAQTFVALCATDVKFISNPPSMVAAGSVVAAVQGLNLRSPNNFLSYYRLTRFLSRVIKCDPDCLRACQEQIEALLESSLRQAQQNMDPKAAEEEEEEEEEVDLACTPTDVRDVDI

Row | SMILES | IC50 (CDK4/CyclinD1) | melting point | IC50 (CDK2/CyclinE)
1 | COC(=O)Nc1nc2cc(OS(=O)(=O)c3ccc(NCCO)cc3)ccc2[nH]1 [Example 1, Methyl-5-(4-[2-hydroxyethyl]aminophenylsulfonyloxy) benzimidazole-2-carbamate] | 1500 nM | 170 °C | 600 nM
2 | COC(=O)Nc1nc2cc(OS(=O)(=O)c3ccc(NCCCCO)cc3)ccc2[nH]1 [Example 2, Methyl-5-(4-[4-hydroxbutyl]aminophenylsulfonyloxy) benzimidazole-2-carbamate] | 2000 nM | 180 °C | 700 nM
3 | COCCNc1ccc(S(=O)(=O)Oc2ccc3[nH]c(NC(=O)OC)nc3c2)cc1 [Example 3, Methyl-5-(4-[2-methoxyethyl]aminophenylsulfonyloxy) benzimidazole-2-carbamate] | 2400 nM | 155 °C | 500 nM
4 | COC(=O)Nc1nc2cc(OS(=O)(=O)c3ccc(-n4ccnc4)cc3)ccc2[nH]1 [Example 4, Methyl-5-(4-[1-imidazolyl]-phenylsulfonyloxy) benzimidazole-2-carbamate] | 6300 nM | 258 °C | 1500 nM
5 | O=C(NCc1ccccn1)Nc1nc2cc(OS(=O)(=O)c3ccc(NCC4CCCO4)cc3)ccc2[nH]1 (stereo not drawn) [Example 59-k, 4-[(Tetrahydro-furan-2-ylmethyl)-amino]-benzenesulfonic acid 2-(3-pyridin-2-ylmethyl-ureido)-1H-benzoimidazol-5-yl ester] | 300 nM | – | 20 nM
6 | O=C(NCc1cccnc1)Nc1nc2cc(OS(=O)(=O)c3ccc(NCC4CCCO4)cc3)ccc2[nH]1 (stereo not drawn) [Example 59-l, 4-[(Tetrahydro-furan-2-ylmethyl)-amino]-benzenesulfonic acid 2-(3-pyridin-3-ylmethyl-ureido)-1H-benzoimidazol-5-yl ester] | 300 nM | – | 4 nM
7 | CN1CCN(CCCNC(=O)Nc2nc3cc(OS(=O)(=O)c4ccc(NCC5CCCO5)cc4)ccc3[nH]2)CC1 (stereo not drawn) [Example 59-m, 4-[(Tetrahydro-furan-2-ylmethyl)-amino]-benzenesulfonic acid 2-{3-[3-(4-methyl-piperazin-1-yl)-propyl]-ureido}-1H-benzoimidazol-5-yl ester] | 1200 nM | – | 30 nM
8 | O=C(NCCS(=O)(=O)O)Nc1nc2cc(OS(=O)(=O)c3ccc(NCC4CCCO4)cc3)ccc2[nH]1 (stereo not drawn) [Example 59-n, 4-[(Tetrahydro-furan-2-ylmethyl)-amino]-benzenesulfonic acid 2-[3-(2-sulfo-ethyl)-ureido]-1H-benzoimidazol-5-yl ester] | 130 nM | – | 36 nM
9 | O=C(Nc1nc2cc(OS(=O)(=O)c3ccc(NCC4CCCO4)cc3)ccc2[nH]1)NC1CCC1 (stereo not drawn) [Example 59-o, 4-[(Tetrahydro-furan-2-ylmethyl)-amino]-benzenesulfonic acid 2-(3-cyclobutyl-ureido)-1H-benzoimidazol-5-yl ester] | 800 nM | – | 40 nM
10 | O=C(NCCCN1CCCC1=O)Nc1nc2cc(OS(=O)(=O)c3ccc(NCC4CCCO4)cc3)ccc2[nH]1 (stereo not drawn) [Example 59-p, 4-[(Tetrahydro-furan-2-ylmethyl)-amino]-benzenesulfonic acid 2-{3-[3-(2-oxo-pyrrolidin-1-yl)-propyl]-ureido}-1H-benzoimidazol-5-yl ester] | 180 nM | – | 17 nM
11 | O=C(NCCNCCO)Nc1nc2cc(OS(=O)(=O)c3ccc(NCC4CCCO4)cc3)ccc2[nH]1 (stereo not drawn) [Example 59-q, 4-[(Tetrahydro-furan-2-ylmethyl)-amino]-benzenesulfonic acid 2-{3-[2-(2-hydroxy-ethylamino)-ethyl]-ureido}-1H-benzoimidazol-5-yl ester] | 750 nM | – | 110 nM
12 | O=C(NCCN1CCCCC1)Nc1nc2cc(OS(=O)(=O)c3ccc(NCC4CCCO4)cc3)ccc2[nH]1 (stereo not drawn) [Example 59-r, 4-[(Tetrahydro-furan-2-ylmethyl)-amino]-benzenesulfonic acid 2-[3-(2-piperidin-1-yl-ethyl)-ureido]-1H-benzoimidazol-5-yl ester] | 1800 nM | – | 220 nM
13 | COC(=O)Nc1nc2cc(OS(=O)(=O)c3cccs3)ccc2[nH]1 [Example 62-b, Thiophene-2-sulfonic acid 2-methoxycarbonylamino-1H-benzoimidazol-5-yl ester] | 440 nM | – | 200 nM
14 | COC(=O)Nc1nc2cc(OS(=O)(=O)c3ccc(-c4cc(C(F)(F)F)n(C)n4)s3)ccc2[nH]1 [Example 62-e, 5-(1-Methyl-5-trifluoromethyl-1H-pyrazol-3-yl)-thiophene-2-sulfonic acid 2-methoxycarbonylamino-1H-benzoimidazol-5-yl ester] | 4600 nM | – | 1000 nM
15 | COC(=O)Nc1nc2cc(OS(=O)(=O)c3c(F)cccc3F)ccc2[nH]1 [Example 62-h, 2,6-Difluoro-benzenesulfonic acid 2-methoxycarbonylamino-1H-benzoimidazol-5-yl ester] | 800 nM | – | 70 nM
16 | COC(=O)Nc1nc2cc(OS(=O)(=O)c3cccc(OC)c3)ccc2[nH]1 [Example 62-i, 3-Methoxy-benzenesulfonic acid 2-methoxycarbonylamino-1H-benzoimidazol-5-yl ester] | 1500 nM | – | 1000 nM
17 | COc1ccc(Nc2nc3cc(OS(=O)(=O)c4ccc(NC5CCCC5)cc4)ccc3[nH]2)cc1OC [Example 69, 4-cyclopentylamino-benzenesulfonic acid 2-(3,4-dimethoxy-phenylamino)-1H-benzoimidazol-5-yl ester] | 840 nM | – | 130 nM
18 | O=S(=O)(Oc1ccc2[nH]c(Nc3ccc(N4CCOCC4)cc3)nc2c1)c1ccc(NC2CCCC2)cc1 [Example 70-b, 4-Cyclopentylamino-benzenesulfonic acid 2-(4-morpholin-4-yl-phenylamino)-1H-benzoimidazol-5-yl ester] | 670 nM | – | 3000 nM
19 | Cc1cc(C)cc(Nc2nc3cc(OS(=O)(=O)c4ccc(NC5CCCC5)cc4)ccc3[nH]2)c1 [Example 70-c, 4-Cyclopentylamino-benzenesulfonic acid 2-(3,5-dimethyl-phenylamino)-1H-benzoimidazol-5-yl ester] | 2000 nM | – | 800 nM
20 | COc1ccc(Nc2nc3cc(OS(=O)(=O)c4ccc(NC5CCCC5)cc4)ccc3[nH]2)cc1 [Example 70-d, 4-Cyclopentylamino-benzenesulfonic acid 2-(4-methoxy-phenylamino)-1H-benzoimidazol-5-yl ester] | 650 nM | – | 300 nM
21 | CN(C)c1ccc(Nc2nc3cc(OS(=O)(=O)c4ccc(NC5CCCC5)cc4)ccc3[nH]2)cc1 [Example 70-e, 4-Cyclopentylamino-benzenesulfonic acid 2-(4-dimethylamino-phenylamino)-1H-benzoimidazol-5-yl ester] | 500 nM | – | 800 nM
22 | CN1CCN(c2ccc(Nc3nc4cc(OS(=O)(=O)c5ccc(NC6CCCC6)cc5)ccc4[nH]3)cc2)CC1 [Example 70-h] | 140 nM | – | 250 nM
